Data published in patent US11912683B1 (priority 2023, dated 2024).
Converted amounts (≈) assume the structure as drawn.

How the values were obtained:
[1] = system: Mycobacterium tuberculosis H37Rv; test: Anti-tubercular activity, colorimetric Resazurin Microplate Assay (REMA), H37Rv; assay type: cell-based; details: 192 h, read-out: Anti-tubercular activity against Mycobacterium tuberculosis H37Rv (MIC)

Question: What does the source list for `CC1=C(C(=O)N2CCCCC2)C(c2ccccc2)NC(=S)N1` (stereo not drawn) [DHPM-KN1, (6-Methyl-4-phenyl-2-thioxo-1,2,3,4-tetrahydropyrimidin-5-yl)(piperidin-1-yl)methanone]?
Answer: melting point: 240 °C; MIC [1]: 16 µg/mL (≈ 50.7 µM)

Question: Which melting point does the source give for `CC1=C(C(=O)N2CCCCC2)C(c2ccc(F)cc2)NC(=S)N1` (stereo not drawn) [DHPM-KN2, (4-(4-Fluorophenyl)-6-methyl-2-thioxo-1,2,3,4-tetrahydropyrimidin-5-yl)(piperidin-1-yl)methanone] here?
Answer: 234 °C

Question: With `COC(=O)C1=C(C)NC(=S)NC1c1ccc(C(F)(F)F)cc1` (stereo not drawn) [DHPM-KN3, Methyl 6-methyl-2-thioxo-4-(4-(trifluoromethyl)phenyl)-1,2,3,4-tetrahydropyrimidine-5-carboxylate] as the compound, how does the melting point read?
Answer: 190 °C

Question: With `COC(=O)C1=C(C)NC(=O)NC1c1ccc([N+](=O)[O-])cc1[N+](=O)[O-]` (stereo not drawn) [DHPM-KN4, Methyl 4-(2,4-dinitrophenyl)-6-methyl-2-oxo-1,2,3,4-tetrahydropyrimidine-5-carboxylate] as the compound, how does the melting point read?
Answer: 210 °C

Question: And the MIC [1]?
Answer: 16 µg/mL (≈ 47.6 µM)

Question: What does the source list for `CC1=C(C(=O)N2CCCCC2)C(c2ccc([N+](=O)[O-])cc2)NC(=S)N1` (stereo not drawn) [DHPM-KN5, (6-Methyl-4-(4-nitrophenyl)-2-thioxo-1,2,3,4-tetrahydropyrimidin-5-yl)(piperidin-1-yl)methanone]?
Answer: melting point: 230 °C; MIC [1]: 8 µg/mL (≈ 22.2 µM)

Question: For `CC1=C(C(=O)N2CCCCC2)C(c2ccc(Br)cc2)NC(=S)N1` (stereo not drawn) [DHPM-KN6, (4-(4-Bromophenyl)-6-methyl-2-thioxo-1,2,3,4-tetrahydropyrimidin-5-yl)(piperidin-1-yl)methanone], which melting point is on record?
Answer: 258 °C

Question: What about the MIC [1] of the same compound?
Answer: > 64 µg/mL

Question: Which melting point does the source give for `COc1ccc(C2NC(=S)NC(C)=C2C(=O)N2CCCCC2)cc1` (stereo not drawn) [DHPM-KN7, (4-(4-Methoxyphenyl)-6-methyl-2-thioxo-1,2,3,4-tetrahydropyrimidin-5-yl)(piperidin-1-yl)methanone] here?
Answer: 124 °C

Question: What about the MIC [1] of the same compound?
Answer: > 64 µg/mL

Question: With `CC1=C(C(=O)N2CCCCC2)C(c2ccccc2C)NC(=S)N1` (stereo not drawn) [DHPM-KN8, (6-Methyl-2-thioxo-4-(o-tolyl)-1,2,3,4-tetrahydropyrimidin-5-yl)(piperidin-1-yl)methanone] as the compound, how does the melting point read?
Answer: 260 °C

Question: And the MIC [1]?
Answer: 128 µg/mL (≈ 389 µM)

Question: For `CC1=C(C(=O)N2CCCCC2)C(c2ccc(Cl)cc2)NC(=S)N1` (stereo not drawn) [DHPM-KN9, (4-(4-Chlorophenyl)-6-methyl-2-thioxo-1,2,3,4-tetrahydropyrimidin-5-yl)(piperidin-1-yl)methanone], which melting point is on record?
Answer: 218 °C

Question: Which melting point does the source give for `CC1=C(C(=O)N2CCCCC2)C(c2ccc(C(F)(F)F)cc2)NC(=S)N1` (stereo not drawn) [DHPM-KN10, (6-Methyl-2-thioxo-4-(4-(trifluoromethyl)phenyl)-1,2,3,4-tetrahydropyrimidin-5-yl)(piperidin-1-yl)methanone] here?
Answer: 172 °C

Question: What about the MIC [1] of the same compound?
Answer: 128 µg/mL (≈ 334 µM)

Question: Which melting point does the source give for `CC1=C(C(=O)N2CCCCC2)C(c2ccc(O)cc2)NC(=S)N1` (stereo not drawn) [DHPM-KN11, (4-(4-Hydroxyphenyl)-6-methyl-2-thioxo-1,2,3,4-tetrahydropyrimidin-5-yl)(piperidin-1-yl)methanone] here?
Answer: 274 °C

Question: For `CC1=C(C(=O)N2CCCCC2)C(c2ccccc2O)NC(=S)N1` (stereo not drawn) [DHPM-KN12, (4-(2-Hydroxyphenyl)-6-methyl-2-thioxo-1,2,3,4-tetrahydropyrimidin-5-yl)(piperidin-1-yl)methanone], which melting point is on record?
Answer: 223 °C

Question: For `CC1=C(C(=O)N2CCCCC2)C(c2ccc(O)c(O)c2)NC(=S)N1` (stereo not drawn) [DHPM-KN13, (4-(3,4-Dihydroxyphenyl)-6-methyl-2-thioxo-1,2,3,4-tetrahydropyrimidin-5-yl)(piperidin-1-yl)methanone], which melting point is on record?
Answer: 173 °C

Question: Which melting point does the source give for `CC1=C(C(=O)N2CCCC2)C(c2ccccc2)NC(=S)N1` (stereo not drawn) [DHPM-KN14, (6-Methyl-4-phenyl-2-thioxo-1,2,3,4-tetrahydropyrimidin-5-yl)(pyrrolidin-1-yl)methanone] here?
Answer: 198 °C
